Data published in BigSolDB 2.1.

Cc1c(C(=O)O)cccc1[N+](=O)[O-]
solubility (mole fraction)
Details | 278.15 K | 283.15 K | 288.15 K | 293.15 K | 298.15 K | 303.15 K | 308.15 K | 313.15 K
in 1,4-dioxane | – | – | 0.0933 | 0.102 | 0.112 | 0.121 | 0.132 | 0.143
in DMF | 0.147 | 0.166 | 0.191 | 0.217 | 0.244 | 0.275 | 0.31 | 0.35
in acetonitrile | 0.00434 | 0.00523 | 0.00624 | 0.00737 | 0.00879 | 0.0104 | 0.0122 | 0.0143
in ethanol | 0.0152 | 0.0181 | 0.0216 | 0.0254 | 0.0297 | 0.0349 | 0.041 | 0.0478
in ethyl acetate | 0.0228 | 0.0258 | 0.0297 | 0.0336 | 0.0378 | 0.0426 | 0.0478 | 0.0538
in isobutanol | 0.00938 | 0.0114 | 0.014 | 0.0166 | 0.0201 | 0.024 | 0.028 | 0.033
in isopropanol | 0.0133 | 0.0161 | 0.019 | 0.0224 | 0.0266 | 0.0314 | 0.0362 | 0.0426
in isopropyl acetate | 0.0146 | 0.017 | 0.0196 | 0.023 | 0.027 | 0.031 | 0.0361 | 0.0413
in methanol | 0.0136 | 0.016 | 0.0193 | 0.0225 | 0.0264 | 0.0312 | 0.0367 | 0.0424
in methyl acetate | 0.0265 | 0.0302 | 0.0338 | 0.038 | 0.0428 | 0.0483 | 0.0539 | 0.06
in n-butanol | 0.0178 | 0.0213 | 0.0255 | 0.0308 | 0.0366 | 0.0434 | 0.0515 | 0.0608
in n-butyl acetate | 0.0165 | 0.0191 | 0.0227 | 0.0261 | 0.0296 | 0.034 | 0.039 | 0.0446
in n-propanol | 0.016 | 0.019 | 0.0227 | 0.027 | 0.032 | 0.0379 | 0.0441 | 0.0519
in n-propyl acetate | 0.0191 | 0.0221 | 0.0251 | 0.0293 | 0.0335 | 0.038 | 0.0432 | 0.049
